Source: patent publication US20240307345A1, “R-MDMA and S-MDMA TO ASSIST PSYCHOTHERAPY” (Universitatsspital Basel, priority 2022, published 2024)
Entries after “also recorded” stand apart in the source; their conditions may differ.

Tests used:
monkeys = details: cited from earlier work
healthy subjects [1] = assay: Effects on mood on the Adjective Mood Rating Scale (AMRS); assay type: in vivo, human
Procedure: (§1) Study design: The present study compares the acute subjective, physiological and endocrine effects of S-MDMA (125 mg), R-MDMA (125 and 250 mg), MDMA (125 mg) using a placebo-controlled double-blind 5-period cross-over design in 24 healthy subjects. Conditions are 1.) R-MDMA 125 mg, 2). R-MDMA 250 mg, 3) S-MDMA 125 mg, 4) MDMA 125 mg, 5) placebo. Treatment order is counterbalanced. Washout periods between substance administrations are at least 10 days. Study days include a 10-hour study session with a subsequent single measurement (short visit) the next morning (24 hours after drug administration).
(§2) Psychometric assessments: Visual Analog Scale (VAS): VASs is repeatedly used to assess subjective alterations in consciousness over time. Single scales are presented as 100 mm horizontal lines marked with “not at all” on the left and “extremely” on the right. The following VAS items are used: “any drug effect”, “good drug effect”, “bad drug effect”, “stimulated”, “liking”, “happy”, “content”, “talkative”, “open”, “trust”, “feeling close to others”, “anxiety”, “alteration of vision”, “alterations of hearing”, “sounds seem to influence what I see”, “alteration of sense of time”, “the boundaries between myself and my surroundings seem to blur”, “want to be with other people”, and “want to be alone”. Scales are administered before and repeatedly after substance administration and take approximately 2 minutes to fill out. The maximal ratings (Emax, 0-100) and areas under the effect-time curve (AUEC) are defined for each VAS and Emax and AUEC values compared between treatments using analysis of variance. 5-Dimensions of Altered States of Consciousness (5D-ASC): The 5 Dimensions of Altered States of Consciousness (5D-ASC) Scale is a questionnaire containing visual analog scales for 94 items (Studerus et al., 2010). The instrument contains five scales assessing mood, anxiety, derealization, depersonalization, changes in perception, auditory alterations, and reduced vigilance. The scale is well-validated (Studerus et al., 2010) and used internationally to evaluate effects of many other psychoactive substances. The overall psychedelic experience is reflected by the total […] score. Each item of the scale is scored on a 0-100 mm VAS. The attribution of the individual items to the subscales of the 5D-ASC is analyzed according to (Studerus et al., 2010). The 5D-ASC scale is administered once at the end of the session and subjects are instructed to retrospectively rate peak alterations that have been experienced during the study session. Adiective Mood Rating Scale (AMRS): The Adjective Mood Rating Scale (AMRS or EWL60S) is a 60-item Likert scale that allows repeated assessment of mood in 6 dimensions: Activation, inactivation, well-being, anxiety/depressed mood, extra- and introversion, and emotional excitability. The German EWL60S version is used. The AMRS consists of subscales measuring “activation,” “positive mood,” “extraversion,” “introversion,” “inactivation,” and “emotional excitability. The scale has previously been used to evaluate effects of many other psychoactive substances. Emax and AUEC scores will be defined for each subscale and compared between treatments using analysis of variance. The AMRS is administered repeatedly throughout the study session and once 3 days after each session. States of Consciousness Questionnaire (SCQ): In the SCQ, 100-items are rated on a six-point scale. Forty-three items embedded into this questionnaire comprise the Mystical Experience Questionnaire (MEQ) (MacLean et al., 2011) which is sensitive to the effects of psychedelic substances such as LSD. […]

healthy subjects [2] = assay: Mood after effects day 1-3 (BDI score, SCL-90-R GSI score); assay type: in vivo, human
Procedure: as §1
Psychometric assessments: Visual Analog Scale (VAS): VASs is repeatedly used to assess subjective alterations in consciousness over time. Single scales are presented as 100 mm horizontal lines marked with “not at all” on the left and “extremely” on the right. […] Each item of the scale is scored on a 0-100 mm VAS. The attribution of the individual items to the subscales of the 5D-ASC is analyzed according to (Studerus et al., 2010). […]

healthy subjects [3] = assay: Connectedness subscale of the PES questionnaire; assay type: in vivo, human
healthy subjects [4] = assay: Autonomic effects (blood pressure, heart rate, body temperature); assay type: in vivo, human
Procedure: as §1
Autonomic measures: Blood pressure, heart rate, and body temperature are recorded at baseline and repeatedly throughout the session. Blood pressure (systolic and diastolic) and heart rate are measured with an automatic oscillometric device. Body temperature is measured with an ear thermometer. Emax is determined for each of the measures and for each study session. These Emax values are then compared between drug conditions using analysis of variance.

healthy subjects [5] = assay: Clinical cross-over study, overall comparison of the substances; assay type: in vivo, human; details: for dose of more equivalent strength to 125 mg (±)-MDMA: based on the results of the present study; for acute subjective effects and adverse effects: conclusion over the doses tested
Procedure: as §1

healthy subjects [6] = assay: Adverse effects (List of Complaints); assay type: in vivo, human; details: for adverse effects 24 to 72 hours after substance administration: 125 mg, compared with placebo
Procedure: as §1
Adverse effects (list of complaints): The list of complaints (LC) consists of 66 items offering a global score measuring physical and general discomfort (Zerssen, 1976). The LC is administered before (baseline), at the end of the session to cover effects from 0-9 hours and 24 hours after substance administration to cover aftereffects from 9-24 hours. To assess adverse effects after 24 hours, subjects fill out an additional LC 3 days after the test session, covering adverse effects from 24-72 hours. Subjects are additionally be asked to report any adverse events during the sessions or/and between study sessions as assessed at the beginning of the next session and at the EOS visit. Global LC scores are summed up and compared between treatments using analysis of variance.

model of PTSD = details: cited from earlier work
healthy subjects [7] = assay: Alteration of mind and mystical-type effects on 5D-ASC and MEQ questionnaires; assay type: in vivo, human; details: for acute mystical-type experiences on the 5D-ASC scale: 24 subjects
Procedure: as §1, §2

rhesus monkeys [8] = details: indicative of abuse-liability; cited from earlier work
rhesus monkeys [9] = details: cited from earlier work
healthy subjects [10] = assay: Endocrine effects (plasma prolactin and cortisol); assay type: in vivo, human
Procedure: as §1
Endocrine effects: Cortisol and prolactin: Cortisol and prolactin are determined as biological markers of serotonergic activity (Seifritz et al., 1996). Plasma concentrations are determined by routine immune assays. Oxytocin and vasopressin: MDMA increase circulating oxytocin (Hysek et al., 2014a) and vasopressin or its precursor copeptin (Simmler et al., 2011). These neurohormones are thought to mediate neurocognitive and adverse effects of MDMA and the role of R-versus S-MDMA remains to be explored. Oxytocin and vasopressin plasma levels are measured before and after substance administration. Concentrations are determined using immunoassays.

animals = details: cited from earlier work
[11] = 125 mg, compared with placebo (and 125 mg R-MDMA)

CN[C@H](C)Cc1ccc2c(c1)OCO2 [R-MDMA, R(−)-MDMA]
peak effects on prosocial behaviors (monkeys): greater peak effects than S-MDMA | effects on the AMRS (healthy subjects [1]; 125 mg): comparable effects | AMRS “Extraversion” (healthy subjects [1]; 125 mg R-MDMA versus (±)-MDMA and S-MDMA): less | effects on the AMRS (healthy subjects [1]; 250 mg): comparable effects | AMRS “Introversion” (healthy subjects [1]; 250 mg R-MDMA versus (±)-MDMA): significant more | mood after administration (healthy subjects [2]; R-MDMA compared with S-MDMA): did not depress mood after administration | ratings of connectedness, difference between conditions (healthy subjects [3]; 250 mg): no difference | body temperature (healthy subjects [4]; 125 mg): did not increase body temperature significantly compared to placebo | body temperature (healthy subjects [4]; 250 mg): increased similarly; also recorded: increased body temperature as much as (±)-MDMA and S-MDMA; also recorded: increased body temperature only moderately | heart rate (healthy subjects [4]; 250 mg, versus placebo): increase heart rate comparably and more than with placebo | cardio and psychostimulant effects / properties (healthy subjects [5]; R-MDMA (125 and 250 mg) compared with S-MDMA): lower cardio and psychostimulant effects; also recorded: less cardiostimulant and psychostimulant properties | dose of more equivalent strength to 125 mg (±)-MDMA (healthy subjects [5]): 300 mg | acute subjective effects and adverse effects (healthy subjects [5]): overall comparable | effect on social interaction and connectedness (healthy subjects [5]; within the dose range tested (125 and 250 mg)): less pronounced | adverse effects 24 to 72 hours after substance administration (healthy subjects [6]): only increased; also recorded: increased number of adverse effects | overall adverse effects (healthy subjects [6]; R-MDMA versus (±)-MDMA): it does not seem that R-MDMA produces overall less adverse effects | conditioned fear when retention of extinction was assessed (model of PTSD): reduced conditioned fear | acute mystical-type experiences on the 5D-ASC scale (healthy subjects [7]; 125 mg): only significantly induced mystical-type effects on the 5D-ASC total score and the “Reductions of vigilance” scale | psychedelic effects on the 5D-ASC and the MEQ questionnaires (healthy subjects [7]; [11]): only significantly induced the 5D-ASC total score and the dimension “Reductions of vigilance” on the 5D-ASC and “positive mood”, “Ineffability” and the MEQ30 total score | acute mystical-type experiences on the 5D-ASC scale (healthy subjects [7]; 250 mg): comparable effects with no significant differences | psychedelic effects on the 5D-ASC and the MEQ questionnaires (healthy subjects [7]; 250 mg, compared with placebo and 125 mg R-MDMA): comparable and overall greater psychedelic effects

CN[C@@H](C)Cc1ccc2c(c1)OCO2 [S-MDMA, S(+)-MDMA]
reinstatement of amphetamine responding (rhesus monkeys [8]): reinstated amphetamine responding | potency to maintain self-administration (rhesus monkeys [9]): more potent than R-MDMA | effects on the AMRS (healthy subjects [1]; 125 mg): comparable effects | AMRS “Emotional excitation” (healthy subjects [1]; 125 mg S-MDMA versus both doses of R-MDMA): more | prolactin release (healthy subjects [10]; 125 mg S-MDMA compared to (±)-MDMA and 125 mg R-MDMA): increased more | cortisol release (healthy subjects [10]; 125 mg S-MDMA compared to (±)-MDMA and both doses of R-MDMA): increased cortisol release more | BDI and GSI scores (healthy subjects [2]; 125 mg, one to three days after substance administration): only increased | ratings of connectedness, difference between conditions (healthy subjects [3]; 125 mg): no difference | body temperature (healthy subjects [4]; 125 mg): increased similarly; also recorded: increased body temperature only moderately | increases in blood pressure (healthy subjects [4]; 125 mg S-MDMA versus (±)-MDMA and both doses of R-MDMA): higher increases | heart rate (healthy subjects [4]; 125 mg S-MDMA versus the other substance conditions): only significantly higher compared with 125 mg of R-MDMA | heart rate (healthy subjects [4]; 125 mg, versus placebo): increase heart rate comparably and more than with placebo | hyperthermia (animals): induced hyperthermia | dose of more equivalent strength to 125 mg (±)-MDMA (healthy subjects [5]): 100 mg | acute subjective effects and adverse effects (healthy subjects [5]): overall comparable | adverse effects 24 to 72 hours after substance administration (healthy subjects [6]): only increased; also recorded: increased number of adverse effects | conditioned fear during extinction training (model of PTSD): reduced conditioned fear during extinction training but not thereafter | acute mystical-type experiences on the 5D-ASC scale (healthy subjects [7]; 125 mg): comparable effects with no significant differences | psychedelic effects on the 5D-ASC and the MEQ questionnaires (healthy subjects [7]; [11]): comparable and overall greater psychedelic effects
